These results are taken from patent US12590296B2, “Method of culturing immortalized human hepatic progenitors or cells” (INSERM (INSTITUT NATIONAL DE LA SANTÉ ET DE LA RECHERCHE …, priority 2019, dated 2026).

“Also recorded” adds a separate entry of the source.

The test system of data set [1] is HuH-7 cells. Put plainly: Cleaved caspase 3 (apoptosis) in HuH-7 cells in 3D GelMa culture. The note with it: treatment at day 14, data not shown. It counts as cell-based, human. As to the method:
Cell laden 3D constructs were fixed in 4% formaldehyde, washed 3 times in PBS and stored at 4° C. until use or immediately suspended in a 0.12 M phosphate buffer containing 10% w/v saccharose and incubated overnight. They were embedded in a protective matrix composed of gelatin 7.5% w/v and 10% w/v saccharose, then frozen in isopentane and cryosectioned at a thickness of 7 μm. Slides were stained on the Discovery Automated IHC stainer using the discovery Rhodamin kit (Ventana Mediacl systems, Tucson, AZ, USA). The concentrations and references of the primary antibodies that were used can be found in Table 1 below. After rinsing, signal enhancement was performed using the Ventana Rhodamin kit and secondary antibody anti-rabbit HRP (760-4311, Roche) or secondary antibody anti-mouse HRP (760-4310, Roche) for 16 min of incubation. After removal from the instrument, slides were manually rinsed, stained when required with albumin antibody then a secondary antibody for albumin detection (Donkey anti goat 488), and mounted with Dapi Fluoromount-G.

Data set [2] deals with HepaRG cells. The note with it: HepaRG cells in 3D GelMa culture, in the presence of U126 (16.4% in its absence); data not shown.
Data set [3] deals with HuH-7 cells. The data set is classed as cell-based, human. As to the method: (§1) Cell viability was assessed by using the WST-1 (water soluble tetrazolium-1) proliferation assay on cell laden 3D constructs at different days or times of culture. Briefly, the cell laden 3D constructs were treated with 100 μL of WST-1 reagent and incubated 30 min at 37° C. Absorbance at 440 nm was read in a microplate reader (SpectrostarNano, BMG labtech, Champigny s/Marne, FR) and the values were converted into percentage of absorbance by comparison with controls assessed at day 0 or time 0. Measurement of lactate dehydrogenase (LDH) was performed on supernatants with the LDH-Glo™ Cytotoxicity Assay (Promega) by following manufacturer's instructions.

Data set [4] is classed as physicochemical. As to the method: The physical properties of different methacrylated gelatin matrices (GelMa matrices) were analyzed by assessing the polymerization and bioprinting properties of the matrices as a function of the GelMa concentration, the photoinitiator LAP concentration and the illumination time at 405 nm (FIG. 1). As shown on FIG. 1A, at 20° C. a concentration of GelMa of 2.5% was not sufficient to ensure a proper polymerization of the matrix and subsequently, an optimal viscosity for the bioprinting process. As shown on FIG. 1B, a minimum concentration of LAP (i.e., 0.1% (w/v)) and an optimized illumination time (i.e., 60 seconds) were defined to reduce the phototoxicity and the production of excess free radicals while maintaining sufficient structural integrity of the printed GelMa for 28 days at 37° C. As shown on FIGS. 1C-D, weight loss of the matrices was assessed as a function of the photoinitiator LAP concentration (either 0.1% (w/v) on FIG. 1C or 0.3% (w/v) on FIG. 1D) and the illumination time at 405 nm. A rapid decrease of the matrix weight, of up to about 40%, was observed 5 hours after the polymerization process (FIG. 1C-D). Then, a constant weight for at least 28 days was observed, indicating a good stability of the matrix in the culture medium at 37° C. (FIGS. 1C-D). […]

Data set [5] deals with HepaRG cells in coculture with LX-2 cells and HUVECs (CoC). In words: mRNA expression (RT-qPCR) in HepaRG + LX-2 + HUVECs coculture (CoC) in 3D GelMa. The data set is classed as cell-based, human. As to the method: (§2) After 1, 2 and 4 week(s) of culture, 3D constructs comprising 3D cell structures were harvested, washed twice in PBS and total ribonucleic acid (RNA) was extracted using TRIzol™ reagent. The concentration of total RNA was measured with a NanoDrop ND-1000 (NanoDrop Technologies). Complementary deoxyribonucleic acid (cDNA) was synthetized using the High Capacity cDNA reverse transcriptase kit (Applied Biosystems Foster City, CA, USA), and real-time polymerase chain reaction (PCR) was performed using the Power SYBR Green PCR master mix (Applied Biosystems Foster City, CA, USA). Basic local alignment search tool (BLAST) was used to design primer sequences which were purchased from Eurogentec (Searing, BE). The expression levels of the target genes were normalized to those of GAPDH and determined by the ΔΔCt method. Final results were expressed as the n-fold difference in target gene expression in samples when compared with the mean expression values of the target gene for controls: either non-differentiated HepaRG (referred to as 2D) or HepaRG differentiated in standard 2D culture conditions (referred to as 2D DMSO). All results are presented as mean±SD of at least n=3 experiments.
(§3) For coculture constructs, the bioprinted 3D structure comprising HepaRG cells and LX-2 cells was cultured during a week, before being put in a low attachment plate containing 1×10^6 HUVECs per mL of medium.
The mRNA expression of hepatic genes (ALB, ALDOB, PPARA and SERPINA1) and of myofibroblastic transition genes and extracellular matrix remodeling genes (ACTA2, ADAMTS12, COL1A1, COL3A1, MMP2, MMP9 and TIMP1) was assessed at day 21 (i) in HepaRG alone in 3D GelMa culture, (ii) in HepaRG in 3D GelMa culture with LX-2 cells and HUVECs (CoC) and (iii) in HepaRG in 3D GelMa culture with LX-2 cells and HUVECs (CoC) activated with TGFβ-1 treatment for 7 days (FIGS. 16A-K). […] The albumin secretion of the HepaRG cells in coculture with the LX-2 cells and HUVECs (CoC) was also assessed and compared to that of HepaRG cells cultured alone (HepaRG) and bioprinted in GelMa matrix under the same conditions.

For data set [6], the system named is HepaRG or HepaRG+HUVECs. Put plainly: Pro-collagen 1a1 secretion (ELISA) in HepaRG or HepaRG+HUVECs. It counts as cell-based, human. The note with it: day 21. Here is the method:
(§4) Medium samples were taken for the determination of albumin and urea content every 48 h. Secreted albumin and proCol1a1 (pro-collagen 1 alpha 1) were quantified using the human serum albumin Duoset Enzyme Linked Immunosorbent Assay (ELISA) kit (R&D systems, Minneapolis, MN, USA) and the human pro-Col1a1 Duoset Enzyme Linked Immunosorbent Assay kits (R&D systems, Minneapolis, MN, USA), according to manufacturer's instructions. Quantification was performed by measuring absorbance at 450 nm using a microplate reader (SpectrostarNano, BMG labtech, Champigny s/Marne, FR). Urea secretion in the medium was measured using a ChromaDazzle Urea Assay kit (AssayGenie, Dublin, IR) according to the manufacturer's protocol, using medium as standard and reading the absorbance at 420 nm (SpectrostarNano, BMG labtech, Champigny s/Marne, FR)
A general note: In an ELISA, binding on a coated surface is turned into a signal by an enzyme label.

The test system of data set [7] is HepaRG cells in coculture with LX-2 cells and HUVECs (CoC). Put plainly: LDH release in coculture (CoC). The data set is classed as cell-based. The note with it: 5 ng/mL every 48 h for 7 days. As to the method: as §1
For orientation: Release of lactate dehydrogenase indicates damage to the cell membrane.

In data set [8] the test system is LX-2 cells. Put plainly: mRNA expression (RT-qPCR) in LX-2 cells in 3D GelMa culture. The data set is classed as cell-based, human. Particulars: 5 ng/mL every 48 h from day 2. As to the method:
as §2, with “Basic local alignment search tool (BLAST) was used to design primer sequences which were purchased from Eurogentec (Searing, BE).” left out, “All results are presented as mean±SD of at least n=3 experiments.” left out
First, the culture of LX-2 cells alone in 3D GelMa culture was assessed, with or without treatment with TGFβ-1, a classical pro-fibrotic cytokine (Czaja et al., J Cell Biol. 1989 June; 108(6):2477-82). […] Then, the mRNA expression of ACTA2, ADAMTS12, LPL, COL1A1, MMP2, TGFβ-1 and TIMP1 was assessed in LX-2 cells in 3D GelMa culture, stimulated or not by TGFβ-1 (FIGS. 14A-G, respectively). […]

For data set [9], the system named is HepaRG cells in coculture with LX-2 cells and HUVECs (CoC). In words: Albumin, urea and pro-collagen 1a1 secretion in coculture (CoC). It counts as cell-based, human. Here is the method:
as §4, §3

Data set [10] has as its system LX-2 cells. Put plainly: SHG microscopy of fibrillar collagen, LX-2 cells alone in 3D GelMa. The data set is classed as cell-based, human. The note with it: LX-2 cells cultured alone in 3D GelMa, after induction. As to the method:
(§5) TPEF/SHG microscopy imaging was performed on mRIC facility of Biosit, University of Rennes1 (France). The SHG imaging system is composed of a confocal TCS SP5 scanning head (Leica Microsystems, Mannheim, Germany) mounted on a DMIRE2 inverted microscope (Leica Microsystems) and equipped with a MAITAI femtosecond laser (Spectra Physics, Santa Clara, CA). 60× water immersion objective (Olympus LUMFL 60 W×1.1NA) was used for applying an 820 nm excitation to the sample. The SHG signal was collected in the forward direction using the condenser (S1, NA ¼ 0.9-1.4; Leica Microsystems), and the TPEF was epi-collected in the backward direction. IRSP 715 bandpass and 410 nm infrared (IR) filters (10 nm full width at half-maximum, FWHM) were placed before the photomultiplier tube. The image processing was performed with ImageJ software (National Institutes of Health).
(§6) SHG microscopy was used to visualize fibrillar collagen, mostly collagen-1 and -3. Briefly, SHG relies on the nonlinear optical interactions with […] fibrillar structures, such as collagen type I, allowing their detection and quantification in 3D tissues. […] For example, such culture is not suitable for the study of liver fibrosis.

Data set [11] relates to HepaRG cells. In words: SHG microscopy of fibrillar collagen, HepaRG cells alone in 3D GelMa. The note with it: HepaRG cells cultured alone in 3D GelMa, with or without treatment. It counts as cell-based, human. As to the method: as §5, §6
[12] abbreviates: CoC, day 21, 5 ng/mL every 48 h for 7 days.

`N.N.[Cl][Pt][Cl]` [cisplatin]: the “response of the cells to an apoptotic inducer (caspase 3)” value in data set [1] was “responded well”.

As to `N#CC(=C(/N)Sc1ccccc1N)/C(C#N)=C(/N)Sc1ccccc1N` [U126], in data set [2], the EdU positive cells is 0.9%.

For the compound methacrylated gelatin [GelMa], in data set [3], the “HuH-7 cell viability (WST-1 proliferation assay)” value is “no decrease”. In data set [4], the “constant weight (stability of the matrix in the culture medium)” value is on record as “at least 28 days”.

For the compound “TGFβ-1: a classical pro-fibrotic cytokine”, the “expression of genes involved in ECM homeostasis (ACTA2, ADAMTS12, COL1A1, COL3A1, MMP2, MMP9 and TIMP1)” value in data set [5] (setting [12]) is listed as “increase”. Further, in [5] (setting [12]), the “hepatic gene mRNA expression (ALB, ALDOB, PPARA and SERPINA1)” value is “decrease”. For the same compound, in data set [5] (HepaRG alone, HepaRG+HUVECs and CoC (all three conditions)), the COL1A1 expression entry is listed as “significant increase”. Also, the “pro-collagen 1a1 secretion” value was “significatively induces its secretion” in data set [6] and “no significant increase” in data set [9] (HepaRG+LX-2+HUVECs (CoC), day 21). The “release of LDH (a cell death marker) in the medium” value in data set [7] is “no specific release”. The “mRNA expression of ACTA2, COL1A1, MMP2 and TIMP1” value in [8] was “clearly increased in a time-dependent manner”. The albumin secretion result in data set [9] (CoC, 5 ng/mL every 48 h for 7 days) was “decrease”. In data set [9] (CoC, over the 21 days of culture, with or without treatment, data not shown), the urea secretion result is reported as “remained stable”. Also, the “collagen fibrils (SHG microscopy)” value in [10] was “Very few collagen fibrils or no collagen fibrils at all; also recorded: no collagen fibrils were ever observed”. Further, the “collagen deposition (SHG microscopy)” value in data set [11] is “No collagen deposition”.
